Data on nine compounds can be found in US9034874B2, “Carbamate/urea derivatives” (NOVARTIS AG, priority 2012, dated 2015).

Where two headings read alike, the source gives them in different places.

The target of series [1] is T1, human H3 receptors (Homo sapiens (Human), UniProt Q9Y5N1). The series is described as follows: Potency assessment: blockade of (R)-alpha-methylhistamine-mediated cAMP production (LANCE Ultra cAMP kit). The class given is cell-based. To be noted: CHO cells expressing human H3 receptors. The method, then: The potency of compounds of the invention as H3 receptor antagonists can be assessed by measuring the blockade of (R)-alpha-methylhistamine-mediated cAMP production utilizing a LANCE Ultra cAMP kit (PE #TRF0263) in CHO cells expressing human H3 receptors (GenBank: BC096840; Strausberg R L et al, Proc. Natl. Acad. Sci. U.S.A. 99(26), 16899-16903; 2002).
2. Preparation of assay plate: Different concentrations of the compounds of the invention (0.01-1000 nM), H3 positive controls and cAMP calibration standards; […] Forskolin (CALBIOCHEM #344270); 5 μM (R)-alpha-methylhistamine (H3 receptor agonist); 1% DMSO (SIGMA #D2650); total volume: 95 nl.
3. Preparation of the cell solution: Collect cells with stimulation buffer, final density: 100,000 cells/ml.
4. Reaction: (a) transfer 10 μl of cell solution to assay plate, (b) centrifuge at 600 rpm for 3 min and incubate 50 min at room temperature, (c) add 5 μL 4× Eu-cAMP tracer solution (60 μl Eu-cAMP tracer stock solution+2.94 ml cAMP detection buffer) and 5 μL 4× ULight™-anti-cAMP solution (20 μl […]+2.98 ml cAMP detection buffer) to assay plate.
5. Reading plate on EnVision: flash energy: 100%; excitation filter: 111 UV2 320; emission filter: 203 (Eu 615) and 205 (APC 665); number of laser flashes: 20; window: 100 μs; laser mirror module: 445 or 446; laser cycle: 16,600 μs.
6. Data analysis by GraphPad Prism: log (compound concentration) vs. response; variable slope.

In series [2] the target is T1, human H3 receptors. The series is described as follows: Affinity assessment: displacement of [3H]-N-α-Methylhistamine binding to membranes. To be noted: membranes containing human H3 receptors, radioligand [3H]-N-α-Methylhistamine. The method, then: The affinity of compounds of the invention to the H3 receptor can be assessed by measuring displacement of binding of the radioligand [3H]-N-α-Methylhistamine (PerkinElmer, #NET1027250UC) to membranes containing human H3 receptors (PerkinElmer, #ES-392-M400UA; GenBank: NM_007232.2; Hill S J et al, International Union of Pharmacology XIII. Classification of histamine receptors, Pharmacol Rev, 49(3), 253-278, 1997).
2. Compound serial dilution: Dilution was performed by BioTek Precision on compound dilution plate. Compound concentrations start at 5 or 10 μM, 10 point dose titrations with 3- or 5-fold serial dilutions.
3. Preparation of 2× membrane solution (25 ml): 1.25 ml human Histamine H3 receptor stock, 23.75 ml assay buffer.
4. Preparation of 2× solution of [3H]-N-α-methylhistamine (25 ml): 4.27 μl [3H]-N-α-methylhistamine stock, 25 ml assay buffer.
5. Assemble binding reaction: (a) transfer 1 μl of compound solution, 1 μl 100% DMSO and 1 μl 1 M (R)(−)-α-Methylhistamine (Sigma, #H128) to the reaction plate at room temperature, (b) transfer 50 μl of 2× protein solution to reaction plate, (c) transfer 49 μl of 2× radioligand solution to reaction plate (Corning® 96 well EIA/RIA plate; Sigma, #CLS3797).
6. Cover the reaction plate with a TopSeal™-A film (Perkin Elmer, #6005185) and incubate at 28° C. for 120 min. Equilibrate Zeba Spin Desalting Plates (Thermo Scientific, #89808) to room temperature for 120 min.
7. Remove the sealing material from the bottom of the filtration plate. Place the plate on a wash plate. Centrifuge at 1000 g for 2 min to remove the storage buffer at room temperature.
8. Transfer 70 μl binding reaction from reaction plate into filtration plates. Place the filtration plates on top of collection plate. Centrifuge the plate assembly at 1000 g for 2 min to collect the protein with bound radioligand. Add 200 μl of Microscint-40 (PerkinElmer, #6013641-1L) to each well of the collection plate. Cover the plates with TopSeal™-A film.
9. Read the plates on Wallac Microbeta Trilux 2450, Instrument settings: counting mode: CPM, counting time: 2 min.
10. Data analysis: GraphPad Prism: log (compound concentration) vs. response; variable slope. The Ki is calculated based on Chang and Prusoff: Ki=IC50/{1+([radioligand]/Kd)}
(Displacement assays read how much labelled ligand stays bound in the presence of the test substance.)

The nature of series [3]: Solubility of solid forms in aqueous media. It counts as physicochemical.

T1 sequence (Q9Y5N1 whole entry): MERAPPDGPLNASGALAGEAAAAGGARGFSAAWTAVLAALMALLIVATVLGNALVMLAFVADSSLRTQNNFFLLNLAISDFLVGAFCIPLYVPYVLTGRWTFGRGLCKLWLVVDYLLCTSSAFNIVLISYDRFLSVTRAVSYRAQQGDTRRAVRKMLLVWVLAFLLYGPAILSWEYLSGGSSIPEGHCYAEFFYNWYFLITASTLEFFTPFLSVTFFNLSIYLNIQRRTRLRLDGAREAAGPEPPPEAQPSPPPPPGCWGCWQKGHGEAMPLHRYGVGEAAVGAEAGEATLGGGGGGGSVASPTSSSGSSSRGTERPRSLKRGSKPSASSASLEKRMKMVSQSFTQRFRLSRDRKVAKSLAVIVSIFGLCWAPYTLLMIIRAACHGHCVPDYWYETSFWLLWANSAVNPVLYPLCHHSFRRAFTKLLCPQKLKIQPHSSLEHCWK

Consider `CC(C)N1CCN(C(=O)OC2CCN(c3ccc(=O)[nH]c3)CC2)CC1` [Example 3.1, 1-(6-oxo-1,6-dihydropyridin-3-yl)piperidin-4-yl 4-isopropylpiperazine-1-carboxylate], for which the results for the inhibition constant (Ki) in series [1] and in series [2] were 1.6 nM and 1.2 nM, respectively. `Cn1nc(N2CCC(OC(=O)N3CCN(C4CCC4)CC3)CC2)ccc1=O` [Form A of the free from, 1-(1-methyl-6-oxo-1,6-dihydropyridazin-3-yl)piperidin-4-yl 4-cyclobutylpiperazine-1-carboxylate]: the “solubility in aqueous media” value in series [3] (across a pH range from about 1-8) is “good solubility”. Take `O=C(OC1CCN(c2ccc(=O)[nH]n2)CC1)N1CCN(C2CC2)CC1` [Example 1.4, 1-(6-oxo-1,6-dihydropyridazin-3-yl)piperidin-4-yl 4-cyclopropylpiperazine-1-carboxylate]: the values for the inhibition constant Ki in series [1] and in series [2] were 2.3 nM and 25 nM, respectively. On the same counts, the results for `CC(C)N1CCN(C(=O)OC2CCN(c3cc[nH]c(=O)c3)CC2)CC1` [Example 2.3, 1-(2-oxo-1,2-dihydropyridin-4-yl)piperidin-4-yl 4-isopropylpiperazine-1-carboxylate] are 0.9 nM and 12 nM. Take `Cn1nc(N2CCC(OC(=O)N3CCN(C4CCC4)CC3)CC2)ccc1=O` [Example 1.5, 1-(1-methyl-6-oxo-1,6-dihydropyridazin-3-yl)piperidin-4-yl 4-cyclobutylpiperazine-1-carboxylate]: the values for the Ki in series [1] and in series [2] were 1.1 nM and 25 nM, respectively. Take `O=C(OC1CCN(c2cc[nH]c(=O)c2)CC1)N1CCN(C2CCC2)CC1` [Example 2.2, 1-(2-oxo-1,2-dihydropyridin-4-yl)piperidin-4-yl 4-cyclobutylpiperazine-1-carboxylate]: the Ki (in general, a measure of affinity in units of concentration, obtained from inhibition or displacement) turned out to be 0.5 nM in series [1] and 25 nM in series [2].

Take `Cn1nc(N2CCC(OC(=O)N3CCN(C4CCC4)CC3)CC2)ccc1=O` [Form B of the free from, 1-(1-methyl-6-oxo-1,6-dihydropyridazin-3-yl)piperidin-4-yl 4-cyclobutylpiperazine-1-carboxylate]: the “solubility in aqueous media” value in series [3] is reported as “good solubility”. For the compound `CCn1nc(N2CCC(OC(=O)N3CCN(C(C)C)CC3)CC2)ccc1=O` [Example 1.6, 1-(1-ethyl-6-oxo-1,6-dihydropyridazin-3-yl)piperidin-4-yl 4-isopropylpiperazine-1-carboxylate], the inhibition constant (Ki) in series [1] came out at 2.9 nM; in series [2], 44 nM. On the same counts, the results for `CC(C)N1CCN(C(=O)OC2CCN(c3ccn(C)c(=O)c3)CC2)CC1` [Example 2.1, 1-(1-methyl-2-oxo-1,2-dihydropyridin-4-yl)piperidin-4-yl 4-isopropylpiperazine-1-carboxylate] are 3.1 nM and 20 nM.
